Reference: paper PMC11784013, “Potassium molybdate blocks APN-dependent coronavirus entry by degrading receptor via PIK3C3-mediated autophagy” (Journal of Virology, 2024)

Assays:
PEDV LJX 01/2014 = test: PEDV infection of Vero-E6 cells (TCID50, western blot); type: cell-based, porcine epidemic diarrhea virus; conditions: TCID50 and western blot
Method: Fig 1 PM inhibits TGEV and PRCV infection in ST cells. (A) A cytotoxicity assay of PM in ST cells. ST cells cultured in a 96-well plate were incubated with different concentrations of PM for 24 h, which was tested by Cell Counting Kit 8. (B) Time course for PM inhibiting TGEV or PRCV or PEDV infection assay. (C–F) The ST cells, pretreated with PM at the indicated concentrations for 1 h were infected with TGEV Miller (0.1 MOI) or PRCV (0.1 MOI) for 1 h and were again treated with PM at 37°C for 17 h. The cell samples were collected and examined by real-time quantitative PCR (RT-qPCR), TCID50, western blot (C and D), and immunofluorescence assay (IFA) (E and F), scale bar: 50 µm. (G) Vero-E6 cells were treated with indicated PM and infected with PEDV LJX 01/2014 according to the time course of Fig. 1B, which was detected by TCID50 and western blot. Results are presented as mean ± SD of data from three independent experiments. ns, no significant; **, P ≤ 0.01; ***, P ≤ 0.001.

TGEV Miller = test: TGEV challenge of neonatal piglets, PM therapy and prevention; type: in vivo
Method: Fig 10 Oral administration of PM reduces TGEV pathogenicity by autophagic degradation of APN in piglets. (A) Experimental schemes for testing therapeutic and prophylactic efficacy of PM treatment against TGEV challenge in four groups of piglets. (B) Viral shedding was measured by RT-qPCR every 12 h postinfection. (C) TGEV genome copy numbers of duodenum, jejunum, and ileum were detected by RT-qPCR, and APN, PIK3C3, P62, and TGEV N in the small intestine were determined by western blot from piglets sacrificed at 24 hpi. (D) IFA of TGEV N and APN in different segments of the small intestine from piglets sacrificed at 24 hpi. Scale bar: 50 µm. Results are presented as mean ± SD of data from three independent experiments. **, P ≤ 0.01; ***, P ≤ 0.001.
Small intestinal tissues were collected, fixed for 24 h in 10% formalin, dehydrated according to the standard protocol, embedded in paraffin, and subjected to hematoxylin and eosin staining by standard procedures. For immunofluorescence analysis, Organoid monolayers or ST cells were fixed with 4% paraformaldehyde for 20 min and then permeabilized with 0.1% Triton X-100 (Beyotime, China, ST797) for 20 min at 37°C. Organoid monolayers or ST cells were blocked with 5% BSA (Biofroxx, Germany, 4240GR100) for 1 h and then labeled with primary antibodies overnight at 4°C. After rinsing, the sections were incubated with secondary antibodies for 1 h at room temperature. Next, 4’,6-diamidino-2-phenylindole (DAPI; Beyotime, China, C1006) was used to stain the nuclei. After washing, the organoid monolayers or ST cells were visualized using confocal laser-scanning microscopy (Zeiss LSM 900, Germany). Apical-out porcine intestinal organoids or small intestinal tissues were stained with primary and secondary antibodies and visualized using confocal laser-scanning microscopy (Zeiss LSM 900, Germany) according to the manufacturer’s protocol ([28]).
Neonatal pigs spontaneously delivered from sows were confirmed to be negative for TGEV by RT-qPCR and enzyme-linked immunosorbent assay. For the cytotoxicity and pharmacokinetic parameters of the PM, three piglets were orally administered PM (100 mg/kg), and the serum was collected by venipuncture at 0, 1, 2, 4, 6, 8, 10, 12, 16, and 24 h after oral administration of PM for cytotoxicity assays and pharmacokinetic parameter determination. For antiviral animal experiments, piglets were randomly separated into four groups: the mock group ([3]), TGEV group ([3]), TGEV-PM-therapy group ([3]), and TGEV-PM-prevention group ([3]). For the TGEV group, neonatal pigs were orally administered 1.245 × 10^8 PFU TGEV Miller for 24 h. In addition, piglets in the TGEV-PM therapy group were orally infected with 1.245 × 10^8 PFU TGEV Miller and then treated with PM (100 mg/kg). For the TGEV-PM-prevention group, three neonatal pigs were orally pretreated with PM (100 mg/kg) for 24 h and subsequently inoculated with 1.245 × 10^8 PFU TGEV Miller for 24 h. The body weights of all piglets were recorded, and anal swabs were collected every 12 h. At 24 hpi, all pigs were euthanized, and intestinal tissues were collected for RT-qPCR, western blot, IFA, and pathological examination. All animals were handled in strict accordance with good animal practice according to the Animal Ethics Procedures and Guidelines of the People’s Republic of China, and the study was approved by The Animal Administration and Ethics Committee of Lanzhou Veterinary Research Institute, Chinese Academy of Agricultural Sciences (Permit No. LVRIAEC-2020-030).

[1] = type: in vivo; conditions: piglets, oral PM 100 mg/kg
Method: Neonatal pigs spontaneously delivered from sows were confirmed to be negative for TGEV by RT-qPCR and enzyme-linked immunosorbent assay. For the cytotoxicity and pharmacokinetic parameters of the PM, three piglets were orally administered PM (100 mg/kg), and the serum was collected by venipuncture at 0, 1, 2, 4, 6, 8, 10, 12, 16, and 24 h after oral administration of PM for cytotoxicity assays and pharmacokinetic parameter determination. For antiviral animal experiments, piglets were randomly separated into four groups: the mock group ([3]), TGEV group ([3]), TGEV-PM-therapy group ([3]), and TGEV-PM-prevention group ([3]). For the TGEV group, neonatal pigs were orally administered 1.245 × 10^8 PFU TGEV Miller for 24 h. In addition, piglets in the TGEV-PM therapy group were orally infected with 1.245 × 10^8 PFU TGEV Miller and then treated with PM (100 mg/kg). […] The body weights of all piglets were recorded, and anal swabs were collected every 12 h. […]
Fig. S9. […] (A) The serum of piglets orally administered PM were collected at 1, 2, 4, 6, 8, 10, 12, 16 and 24 hours respectively and AST, CK and CREA level in those sera were measured by biochemical parameters. (B) PM concentrations at indicated times in piglets were determined by ICP-MS. […]

[2] = PM-therapy and PM-prevention groups vs control, 24 hpi, western blot
[3] = oral PM 100 mg/kg every 12 h, TGEV Miller 1.245 × 10^8 PFU oral

[K+].[K+].[O]=[Mo](=[O])([O-])[O-] [PM, potassium molybdate]
PEDV infection (PEDV LJX 01/2014): unable to repress PEDV infection
APN expression and TGEV N protein expression in small intestine (IFA) (TGEV Miller; 24 hpi): almost entirely inhibited
TGEV-induced villous atrophy of small intestinal segments (H&E) (TGEV Miller; PM 100 mg/kg, preventive or therapeutic treatment, 24 hpi): almost completely reversed TGEV-induced villous atrophy
effect of PM alone on the small intestine (H&E) (TGEV Miller; PM treatment alone): did not have any impact on the small intestine
TGEV burden throughout the small intestine (TGEV Miller; PM-therapy and PM-prevention groups vs control, 24 hpi, RT-qPCR and western blot): substantially lower
APN and P62 expression throughout the small intestine (TGEV Miller; [2]): substantially lower
PIK3C3 expression in the small intestine (TGEV Miller; [2]): significantly higher
body weight loss (TGEV Miller; [3]): TGEV group lost more weight and had higher viral shedding than those receiving PM
viral shedding (anal swabs, RT-qPCR) (TGEV Miller; [3]): TGEV group lost more weight and had higher viral shedding than those receiving PM
safety of the dose [1]: safe concentration
aminotransferase (AST), creatine kinase (CK) and creatinine (CERA) levels ([1]; serum at 0-24 h): did not affect
